Data reported in patent US8513276B2, “Imidazo[1,2-a]pyridine compounds for use in treating cancer” (Astex Therapeutics Limited, priority 2006, dated 2013).
Structures can show the parent of a compound that is named as a salt. Where two headings read alike, the source gives them in different places.

Tests used:
FGFR3 = molecular target: T1, FGFR3 (Homo sapiens, UniProt P22607); test: FGFR3 in vitro kinase inhibitory activity assay (TRF); assay type: biochemical
T1 construct: Enzymes (from Upstate) were prepared at 2× final concentration in 1× kinase assay buffer; purchased Upstate
Protocol: Enzymes (from Upstate) were prepared at 2× final concentration in 1× kinase assay buffer (as described below). Enzymes were then incubated with test compounds, biotinylated Flt3 substrate (biotin—DNEYFYV) (Cell Signalling Technology Inc.) and ATP. The reaction was allowed to proceed for 3 hours (FGFR3) or 2.5 hrs (PDGFR-beta) at room temperature on a plate shaker at 900 rpm before being stopped with 20 μl of 35 mM EDTA, pH 8 (FGFR3) or 55 mM EDTA, pH 8 (PDGFR-beta). Twenty μl of 5× detection mix (50 mM HEPES pH 7.5, 0.1% BSA, 2 nM Eu-anti-pY (PY20) (PerkinElmer) 15 nM SA-XL665 (Cisbio) for FGFR3 and 50 mM HEPES, pH 7.5, 0.5 M KF, 0.1% BSA, 11.34 nM Eu-anti-pY (PT66) (PerkinEimer), 94 nM SA-XL665 (Cisbio) for PDGFR-beta) was then added to each well and the plate sealed and incubated at room temperature for one hour on a plate shaker at 900 rpm. The plate was then read on a Packard Fusion plate reader in TRF mode.
Kinase Assay buffers were:
A: 50 mM HEPES pH 7.5, 6 mM MnCl2, 1 mM DTT, 0.1% TritonX-100

LP-1 cell line = test: Cell-based pERK ELISA in LP-1 multiple myeloma cells; details: Homo sapiens
Protocol: LP-1 or JIM-1 multiple myeloma cells were seeded in 96 well plates at 1×10^6 cells/ml in 200 μl per well in serum free media. HUVEC cells were seeded at 2.5×10^5 cells/ml and allowed to recover for 24 h prior to transfer to serum free media. Cells were incubated for 16 h at 37° C. prior to the addition of a test compound for 30 minutes. Test compounds were administered at a 0.1% final DMSO concentration. Following this 30 minute incubation a FGF-1/Heparin (FGF-1 at 100 ng/ml final and Heparin at 100 ug/ml) mixture or VEGF^165 ([…]) was added to each of the wells for a further 5 minutes. The media was removed and 50 ul ERK ELISA lysis buffer (R and D Systems DuoSet ELISA for pERK and Total ERK #DYC-1940E, DYC-1018E) added. ELISA plates and standards were prepared according to the standard DuoSet protocols and the relative amounts of pERK to total ERK in each sample calculated according to the standard curve.
In particular, compounds of the invention were tested against the LP-1 cell line (DSMZ no.: ACC 41) derived from human multiple myeloma.

[1] = given as a bound, read-out: IC50 in the FGFR3 assay
[2] = LP-1 cell line, given as a bound, read-out: IC50 in LP-1 pERK ELISA
[3] = in vitro kinase assay, 8 μM ATP, read-out: FGFR3 IC50
[4] = LP-1 cells, FGF-1/heparin stimulation, pERK relative to total ERK, read-out: LP-1 pERK ELISA

T1 sequence (P22607 23-806): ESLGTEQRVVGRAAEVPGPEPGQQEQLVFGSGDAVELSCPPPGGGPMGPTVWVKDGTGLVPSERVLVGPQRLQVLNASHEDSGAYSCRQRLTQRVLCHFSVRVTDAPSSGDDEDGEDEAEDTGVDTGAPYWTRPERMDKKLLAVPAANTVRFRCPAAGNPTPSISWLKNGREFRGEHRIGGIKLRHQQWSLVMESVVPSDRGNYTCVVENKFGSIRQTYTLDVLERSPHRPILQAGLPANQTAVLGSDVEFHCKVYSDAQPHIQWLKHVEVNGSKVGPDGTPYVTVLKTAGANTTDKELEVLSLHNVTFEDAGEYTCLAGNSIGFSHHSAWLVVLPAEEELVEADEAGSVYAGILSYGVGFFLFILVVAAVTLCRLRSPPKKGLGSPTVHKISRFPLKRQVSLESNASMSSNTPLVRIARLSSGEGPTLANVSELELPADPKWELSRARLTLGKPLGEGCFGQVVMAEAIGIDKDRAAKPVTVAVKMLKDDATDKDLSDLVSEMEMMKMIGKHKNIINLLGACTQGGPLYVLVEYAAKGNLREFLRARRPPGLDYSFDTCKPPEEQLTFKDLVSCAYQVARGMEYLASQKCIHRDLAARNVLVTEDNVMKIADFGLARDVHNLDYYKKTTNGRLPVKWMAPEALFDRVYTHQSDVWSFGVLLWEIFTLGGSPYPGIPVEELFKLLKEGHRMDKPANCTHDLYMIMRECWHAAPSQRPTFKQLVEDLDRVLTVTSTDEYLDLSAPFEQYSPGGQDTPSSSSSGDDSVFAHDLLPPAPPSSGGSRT

| Structure (SMILES) | IC50 (FGFR3; [1]) | IC50 (LP-1 cell line; [2]) | IC50 (FGFR3; [3]) | IC50 (LP-1 cell line; [4]) |
| --- | --- | --- | --- | --- |
| O=C1CN(Cc2cccc(-c3ccn4c(-c5cccc(Nc6nncs6)c5)cnc4c3)c2)CCN1 [Example 28, 4-(3-{3-[3-([1,3,4]Thiadiazol-2-ylamino)-phenyl]-imidazo[1,2-a]pyridin-7-yl}-benzyl)-piperazin-2-one Formate] | < 1000 nM | < 1000 nM |  |  |
| Cn1cc(-c2cnc3c(-c4cccc(Nc5nncs5)c4)cnn3c2)cn1 [Example 16, {3-[6-(1-Methyl-1H-pyrazol-4-yl)-pyrazolo[1,5-a]pyrimidin-3-yl]-phenyl}-[1,3,4]thiadiazol-2-yl-amine] | < 1000 nM | < 1000 nM |  |  |
| c1cc(Nc2nncs2)cc(-c2cnc3cc(-c4ccc5c(c4)OCO5)ccn23)c1 [Example 20, [3-(7-Benzo[1,3]dioxol-5-yl-imidazo[1,2-a]pyridin-3-yl)-phenyl]-[1,3,4]thiadiazol-2-yl-amine Formate] | < 1000 nM | < 1000 nM |  |  |
| Fc1ccc(-c2ccn3c(-c4cccc(Nc5nncs5)c4)cnc3c2)cc1 [Example 7, {3-[7-(4-Fluoro-phenyl)-imidazo[1,2-a]pyridin-3-yl]-phenyl}-[1,3,4]thiadiazol-2-yl-amine] | < 1000 nM | < 1000 nM | 2.2 nM | 69 nM |
| c1cc(Nc2nncs2)cc(-c2cnn3cc(-c4ccncc4)cnc23)c1 [Example 17, [3-(6-Pyridin-4-yl-pyrazolo[1,5-a]pyrimidin-3-yl)-phenyl]-[1,3,4]thiadiazol-2-yl-amine] | < 1000 nM | < 1000 nM |  |  |
| Fc1ccc(-c2cnc3c(-c4cccc(Nc5nncs5)c4)cnn3c2)cc1 [Example 10, {3-[6-(4-Fluoro-phenyl)-pyrazolo[1,5-a]pyrimidin-3-yl]-phenyl}-[1,3,4]thiadiazol-2-yl-amine] | < 1000 nM | < 1000 nM | 4.82 nM | 39 nM |
| c1cc(Nc2nncs2)cc(-c2cnc3cc(N4CCCCC4)ccn23)c1 [Example 24, [3-(7-Piperidin-1-yl-imidazo[1,2-a]pyridin-3-yl)-phenyl]-[1,3,4]thiadiazol-2-yl-amine] | < 1000 nM | < 1000 nM |  |  |
| Nc1cccc(-c2ccn3c(-c4cccc(Nc5nncs5)c4)cnc3c2)c1 [Example 32, {3-[7-(3-Amino-phenyl)-imidazo[1,2-a]pyridin-3-yl]-phenyl}-[1,3,4]thiadiazol-2-yl-amine Hydrochloride] | < 1000 nM | < 1000 nM |  |  |
| Fc1ccc(-c2cnc3c(-c4cncc(Nc5nncs5)c4)cnn3c2)cc1 [Example 25, {5-[6-(4-Fluoro-phenyl)-pyrazolo[1,5-a]pyrimidin-3-yl]-pyridin-3-yl}-[1,3,4]thiadiazol-2-yl-amine] | < 1000 nM | < 1000 nM |  |  |
| Cc1nnc(Nc2cccc(-c3cnc4cc(-c5cccc(CN6CCOCC6)c5)ccn34)c2)s1 [Example 3] | < 1000 nM | < 1000 nM |  |  |
| CN1CCN(Cc2ccc(-c3ccn4c(-c5cccc(Nc6cnn[nH]6)c5)cnc4c3)cc2)CC1 [Example 4, (3-{7-[4-(4-Methyl-piperazin-1-ylmethyl)-phenyl]-imidazo[1,2-a]pyridin-3-yl}-phenyl)-(3H-[1,2,3]triazol-4-yl)-amine formate salt] | < 1000 nM | < 1000 nM |  |  |
| Nc1ccc(-c2cnc3c(-c4cccc(Nc5nncs5)c4)cnn3c2)cn1 [Example 11, 5-{3-[3-([1,3,4]Thiadiazol-2-ylamino)-phenyl]-pyrazolo[1,5-a]pyrimidin-6-yl}-pyridin-2-ylamine hydrochloride salt] | < 1000 nM | < 1000 nM | 6.03 nM | 40 nM |
| Fc1ccc(-c2ccc3c(-c4cccc(Nc5nncs5)c4)cnn3c2)cc1 [Example 12, {3-[6-(4-Fluoro-phenyl)-pyrazolo[1,5-a]pyridin-3-yl]-phenyl}-[1,3,4]thiadiazol-2-yl-amine] | < 1000 nM | < 1000 nM |  |  |
| O=C(O)Cc1cccc(-c2ccn3c(-c4cccc(NCc5ccccc5)c4)cnc3c2)c1 [Example 13, {3-[3-(3-Benzylamino-phenyl)-imidazo[1,2-a]pyridin-7-yl]-phenyl}-acetic acid] | < 1000 nM | < 1000 nM |  |  |
| c1cc(CN2CCOCC2)cc(-c2ccn3c(-c4cccc(Nc5nncs5)c4)cnc3c2)c1 [Example 2] | < 1000 nM | < 1000 nM |  |  |
